Measurements published in the kinase profiling compilation of Christmann-Franck et al. (2016).

Legend:
Assay in all cases: KINOMEscan competition binding
Conditions in all cases: compound 10.0 µM
[1] = molecular target: NUAK1 (human) (UniProt O60285)
[2] = molecular target: MAP3K9 (human) (UniProt P80192)
[3] = molecular target: WEE1 (human) (UniProt P30291)
[4] = molecular target: BMPR1B (human) (UniProt O00238)
[5] = molecular target: TSSK1B (human) (UniProt Q9BXA7)
[6] = molecular target: DYRK1B (human) (UniProt Q9Y463)
[7] = molecular target: MAPK9 (human) (UniProt P45984)
[8] = molecular target: MARK3 (human) (UniProt P27448)
[9] = molecular target: CIT (human) (UniProt O14578)
[10] = tested on: EGFR (human), P00533 [747-751 del / S ins]
[11] = molecular target: PHKG1 (human) (UniProt Q16816)
[12] = molecular target: CSNK1A1L (human) (UniProt Q8N752)
[13] = molecular target: PDPK1 (human) (UniProt O15530)
[14] = molecular target: CDKL2 (human) (UniProt Q92772)
[15] = molecular target: MAPK13 (human) (UniProt O15264)
[16] = molecular target: STK32B (human) (UniProt Q9NY57)
[17] = molecular target: ROS1 (human) (UniProt P08922)
[18] = molecular target: KIT (human) (UniProt P10721)
[19] = molecular target: STK39 (human) (UniProt Q9UEW8)
[20] = molecular target: FGFR2 (human) (UniProt P21802)
[21] = molecular target: WEE2 (human) (UniProt P0C1S8)
[22] = molecular target: MAP2K3 (human) (UniProt P46734)
[23] = molecular target: MST4 (human) (UniProt Q9P289)
[24] = molecular target: CSNK2A1 (human) (UniProt P68400)
[25] = molecular target: TGFBR1 (human) (UniProt P36897)
[26] = molecular target: ULK3 (human) (UniProt Q6PHR2)
[27] = molecular target: MKNK1 (human) (UniProt Q9BUB5)
[28] = molecular target: CDK19 (human) (UniProt Q9BWU1)
[29] = molecular target: RPS6KA1 KD2 (human) (UniProt Q15418)
[30] = molecular target: JAK2 JH1 catalytic (human) (UniProt O60674)
[31] = molecular target: MAK (human) (UniProt P20794)
[32] = molecular target: TNK1 (human) (UniProt Q13470)
[33] = molecular target: SGK110 (human) (UniProt P0C264)
[34] = tested on: KIT (human), P10721 [V559D/V654A]
[35] = molecular target: BRAF (human) (UniProt P15056)
[36] = molecular target: EPHA2 (human) (UniProt P29317)
[37] = molecular target: NEK5 (human) (UniProt Q6P3R8)
[38] = molecular target: SLK (human) (UniProt Q9H2G2)
[39] = molecular target: ULK1 (human) (UniProt O75385)
[40] = molecular target: MINK1 (human) (UniProt Q8N4C8)

CIT (human), sequence (O14578 whole entry, looked up): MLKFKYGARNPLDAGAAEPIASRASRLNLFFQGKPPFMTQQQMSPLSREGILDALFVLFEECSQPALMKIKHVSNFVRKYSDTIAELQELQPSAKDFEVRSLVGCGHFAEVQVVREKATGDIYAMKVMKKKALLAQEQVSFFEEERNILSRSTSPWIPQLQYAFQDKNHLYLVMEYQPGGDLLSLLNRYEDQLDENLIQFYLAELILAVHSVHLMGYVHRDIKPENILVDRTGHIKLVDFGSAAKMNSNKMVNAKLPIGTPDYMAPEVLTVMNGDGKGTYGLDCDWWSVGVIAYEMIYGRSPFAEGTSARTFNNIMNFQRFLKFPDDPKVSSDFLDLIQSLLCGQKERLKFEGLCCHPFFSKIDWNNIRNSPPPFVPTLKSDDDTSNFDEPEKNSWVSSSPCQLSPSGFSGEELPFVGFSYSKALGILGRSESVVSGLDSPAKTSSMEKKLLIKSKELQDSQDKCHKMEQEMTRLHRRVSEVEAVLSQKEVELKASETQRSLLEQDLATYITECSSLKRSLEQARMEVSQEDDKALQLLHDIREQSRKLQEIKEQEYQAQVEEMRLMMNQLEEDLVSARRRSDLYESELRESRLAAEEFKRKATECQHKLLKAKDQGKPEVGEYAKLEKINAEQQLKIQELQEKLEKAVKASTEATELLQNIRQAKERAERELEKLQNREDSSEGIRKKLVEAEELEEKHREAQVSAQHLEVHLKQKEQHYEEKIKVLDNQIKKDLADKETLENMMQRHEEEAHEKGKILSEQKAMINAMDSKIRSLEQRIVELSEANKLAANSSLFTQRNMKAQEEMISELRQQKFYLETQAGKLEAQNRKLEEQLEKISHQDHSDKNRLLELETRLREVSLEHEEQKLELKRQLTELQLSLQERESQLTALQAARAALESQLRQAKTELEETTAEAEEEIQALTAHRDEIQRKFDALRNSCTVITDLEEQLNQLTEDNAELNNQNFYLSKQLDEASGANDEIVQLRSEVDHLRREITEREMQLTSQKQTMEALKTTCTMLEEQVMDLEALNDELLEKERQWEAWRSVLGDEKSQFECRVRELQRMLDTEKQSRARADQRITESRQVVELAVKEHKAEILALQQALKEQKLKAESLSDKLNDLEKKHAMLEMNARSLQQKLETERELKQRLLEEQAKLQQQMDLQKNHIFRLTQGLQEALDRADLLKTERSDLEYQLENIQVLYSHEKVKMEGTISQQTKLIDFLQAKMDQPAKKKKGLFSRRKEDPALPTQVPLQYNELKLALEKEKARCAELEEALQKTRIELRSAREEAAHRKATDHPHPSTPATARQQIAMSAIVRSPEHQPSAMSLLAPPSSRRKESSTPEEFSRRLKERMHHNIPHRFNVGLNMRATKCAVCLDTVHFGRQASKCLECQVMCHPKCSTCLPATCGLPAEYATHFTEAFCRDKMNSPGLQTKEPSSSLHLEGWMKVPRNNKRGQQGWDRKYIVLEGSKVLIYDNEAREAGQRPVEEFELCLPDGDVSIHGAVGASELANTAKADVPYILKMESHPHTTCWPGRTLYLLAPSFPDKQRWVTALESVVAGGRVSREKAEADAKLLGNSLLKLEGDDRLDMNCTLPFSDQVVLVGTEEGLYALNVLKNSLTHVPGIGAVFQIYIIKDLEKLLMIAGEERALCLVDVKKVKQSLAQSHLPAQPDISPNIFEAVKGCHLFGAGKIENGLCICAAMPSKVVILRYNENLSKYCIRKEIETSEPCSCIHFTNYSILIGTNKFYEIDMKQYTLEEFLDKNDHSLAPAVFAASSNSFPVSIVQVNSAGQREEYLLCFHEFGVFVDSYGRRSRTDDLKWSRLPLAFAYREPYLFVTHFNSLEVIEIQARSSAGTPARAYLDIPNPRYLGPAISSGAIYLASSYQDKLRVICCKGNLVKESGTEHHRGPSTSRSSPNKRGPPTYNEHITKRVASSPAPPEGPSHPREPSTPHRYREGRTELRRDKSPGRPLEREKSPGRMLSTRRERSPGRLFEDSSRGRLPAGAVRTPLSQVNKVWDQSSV
SGK110 (human), sequence (P0C264 whole entry, looked up): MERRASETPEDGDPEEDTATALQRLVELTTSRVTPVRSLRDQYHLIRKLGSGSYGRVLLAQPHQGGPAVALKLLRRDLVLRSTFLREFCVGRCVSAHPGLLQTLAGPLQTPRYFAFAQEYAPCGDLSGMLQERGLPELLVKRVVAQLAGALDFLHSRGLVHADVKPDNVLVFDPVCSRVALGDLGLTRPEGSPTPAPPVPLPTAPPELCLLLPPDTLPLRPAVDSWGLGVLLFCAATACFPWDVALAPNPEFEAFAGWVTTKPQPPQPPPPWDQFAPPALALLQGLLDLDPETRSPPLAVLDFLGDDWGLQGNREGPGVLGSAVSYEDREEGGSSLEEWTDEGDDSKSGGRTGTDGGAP
KIT (human), sequence (P10721 whole entry, looked up): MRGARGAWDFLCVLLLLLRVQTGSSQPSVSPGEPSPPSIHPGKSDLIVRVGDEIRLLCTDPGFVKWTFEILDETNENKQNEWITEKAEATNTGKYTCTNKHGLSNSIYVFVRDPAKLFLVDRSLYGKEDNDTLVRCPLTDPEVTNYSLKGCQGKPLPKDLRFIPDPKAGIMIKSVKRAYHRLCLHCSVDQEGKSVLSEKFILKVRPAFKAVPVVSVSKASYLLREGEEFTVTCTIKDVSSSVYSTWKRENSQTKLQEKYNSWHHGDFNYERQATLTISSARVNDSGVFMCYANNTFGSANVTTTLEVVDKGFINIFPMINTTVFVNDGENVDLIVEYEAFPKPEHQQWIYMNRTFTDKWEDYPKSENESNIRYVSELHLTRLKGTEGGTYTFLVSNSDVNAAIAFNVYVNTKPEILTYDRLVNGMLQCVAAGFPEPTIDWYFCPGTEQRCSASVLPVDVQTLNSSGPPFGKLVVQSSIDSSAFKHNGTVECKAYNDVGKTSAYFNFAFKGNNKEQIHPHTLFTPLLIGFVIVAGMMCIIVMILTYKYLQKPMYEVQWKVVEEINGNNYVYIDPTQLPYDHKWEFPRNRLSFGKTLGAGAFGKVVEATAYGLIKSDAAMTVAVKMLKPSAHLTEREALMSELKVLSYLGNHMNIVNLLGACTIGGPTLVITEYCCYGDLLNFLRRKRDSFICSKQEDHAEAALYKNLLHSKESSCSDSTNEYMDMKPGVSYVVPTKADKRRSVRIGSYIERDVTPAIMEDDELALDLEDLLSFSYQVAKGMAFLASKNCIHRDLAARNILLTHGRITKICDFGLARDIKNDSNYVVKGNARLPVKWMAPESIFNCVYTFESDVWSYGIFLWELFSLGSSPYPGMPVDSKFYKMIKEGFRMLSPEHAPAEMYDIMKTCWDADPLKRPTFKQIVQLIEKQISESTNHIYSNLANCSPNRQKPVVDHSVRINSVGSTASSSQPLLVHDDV
NEK5 (human), sequence (Q6P3R8 whole entry, looked up): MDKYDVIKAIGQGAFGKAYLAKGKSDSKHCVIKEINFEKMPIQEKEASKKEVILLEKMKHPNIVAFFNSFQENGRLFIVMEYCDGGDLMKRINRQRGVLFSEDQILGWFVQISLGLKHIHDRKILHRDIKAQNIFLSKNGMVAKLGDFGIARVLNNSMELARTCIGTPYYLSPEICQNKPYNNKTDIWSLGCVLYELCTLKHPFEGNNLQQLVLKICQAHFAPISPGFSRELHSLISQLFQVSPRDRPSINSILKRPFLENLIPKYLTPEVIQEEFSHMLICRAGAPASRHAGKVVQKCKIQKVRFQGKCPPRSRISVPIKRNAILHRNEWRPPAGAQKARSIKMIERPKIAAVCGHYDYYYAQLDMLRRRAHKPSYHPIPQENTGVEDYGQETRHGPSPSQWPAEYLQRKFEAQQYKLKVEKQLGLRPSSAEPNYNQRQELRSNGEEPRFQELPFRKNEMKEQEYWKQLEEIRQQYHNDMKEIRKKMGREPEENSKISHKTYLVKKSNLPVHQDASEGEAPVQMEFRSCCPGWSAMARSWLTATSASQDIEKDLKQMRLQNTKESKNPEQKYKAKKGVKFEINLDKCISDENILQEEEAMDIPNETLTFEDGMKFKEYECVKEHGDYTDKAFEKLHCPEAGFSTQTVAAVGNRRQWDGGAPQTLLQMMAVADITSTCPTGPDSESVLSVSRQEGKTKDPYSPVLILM
RPS6KA1 KD2 (human), sequence (Q15418 whole entry, looked up): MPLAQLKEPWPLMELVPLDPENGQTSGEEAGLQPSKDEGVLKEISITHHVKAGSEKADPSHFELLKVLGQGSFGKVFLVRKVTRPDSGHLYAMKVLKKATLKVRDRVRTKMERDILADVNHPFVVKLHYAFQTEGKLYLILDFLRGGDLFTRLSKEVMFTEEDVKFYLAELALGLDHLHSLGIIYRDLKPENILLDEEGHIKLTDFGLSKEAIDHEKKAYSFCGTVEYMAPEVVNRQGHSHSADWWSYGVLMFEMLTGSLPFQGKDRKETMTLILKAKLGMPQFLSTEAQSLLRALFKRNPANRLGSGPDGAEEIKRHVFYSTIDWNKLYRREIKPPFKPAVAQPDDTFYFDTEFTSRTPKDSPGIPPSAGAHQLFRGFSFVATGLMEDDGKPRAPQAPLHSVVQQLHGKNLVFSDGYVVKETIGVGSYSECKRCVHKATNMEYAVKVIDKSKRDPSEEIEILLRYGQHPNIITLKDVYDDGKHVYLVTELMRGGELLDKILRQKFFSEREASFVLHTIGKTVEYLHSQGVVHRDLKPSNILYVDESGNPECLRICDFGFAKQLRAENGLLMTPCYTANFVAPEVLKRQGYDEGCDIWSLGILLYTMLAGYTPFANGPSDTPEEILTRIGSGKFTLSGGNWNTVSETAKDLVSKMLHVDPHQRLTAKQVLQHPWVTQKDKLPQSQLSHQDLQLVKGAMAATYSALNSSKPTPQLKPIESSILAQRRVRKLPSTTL
KIT (human), P10721 [V559D/V654A], sequence (P10721 whole entry V559D/V654A, looked up): as the sequence (P10721 whole entry, looked up) above, with V559D, V654A counted along it

COc1cc(C(=O)N2CCC(N3CCN(C)CC3)CC2)ccc1Nc1ncc2c(n1)N(C)c1ccccc1C(=O)N2C
kinase still bound, per cent of control [1]: 47% | kinase still bound, per cent of control [2]: 93% | kinase still bound, per cent of control [3]: 100% | kinase still bound, per cent of control [4]: 100% | kinase still bound, per cent of control [5]: 60% | kinase still bound, per cent of control [6]: 94% | kinase still bound, per cent of control [7]: 94% | kinase still bound, per cent of control [8]: 98% | kinase still bound, per cent of control [9]: 99% | kinase still bound, per cent of control [10]: 100% | kinase still bound, per cent of control [11]: 54% | kinase still bound, per cent of control [12]: 100% | kinase still bound, per cent of control [13]: 100% | kinase still bound, per cent of control [14]: 100% | kinase still bound, per cent of control [15]: 72% | kinase still bound, per cent of control [16]: 100% | kinase still bound, per cent of control [17]: 12% | kinase still bound, per cent of control [18]: 100% | kinase still bound, per cent of control [19]: 39% | kinase still bound, per cent of control [20]: 95% | kinase still bound, per cent of control [21]: 100% | kinase still bound, per cent of control [22]: 75% | kinase still bound, per cent of control [23]: 95% | kinase still bound, per cent of control [24]: 100% | kinase still bound, per cent of control [25]: 100% | kinase still bound, per cent of control [26]: 100% | kinase still bound, per cent of control [27]: 50% | kinase still bound, per cent of control [28]: 100% | kinase still bound, per cent of control [29]: 10% | kinase still bound, per cent of control [30]: 70% | kinase still bound, per cent of control [31]: 72% | kinase still bound, per cent of control [32]: 2.8% | kinase still bound, per cent of control [33]: 62% | kinase still bound, per cent of control [34]: 100% | kinase still bound, per cent of control [35]: 81% | kinase still bound, per cent of control [36]: 92% | kinase still bound, per cent of control [37]: 100% | kinase still bound, per cent of control [38]: 100% | kinase still bound, per cent of control [39]: 80% | kinase still bound, per cent of control [40]: 77%
